The target of experiment [1] is T1, rat A1 AR (Rattus norvegicus, UniProt P25099).
T1 construct: A1 ARs of rat brain cortical membrane; from tissue; host or cells: rat brain cortex membranes
T1 sequence (P25099 1-326): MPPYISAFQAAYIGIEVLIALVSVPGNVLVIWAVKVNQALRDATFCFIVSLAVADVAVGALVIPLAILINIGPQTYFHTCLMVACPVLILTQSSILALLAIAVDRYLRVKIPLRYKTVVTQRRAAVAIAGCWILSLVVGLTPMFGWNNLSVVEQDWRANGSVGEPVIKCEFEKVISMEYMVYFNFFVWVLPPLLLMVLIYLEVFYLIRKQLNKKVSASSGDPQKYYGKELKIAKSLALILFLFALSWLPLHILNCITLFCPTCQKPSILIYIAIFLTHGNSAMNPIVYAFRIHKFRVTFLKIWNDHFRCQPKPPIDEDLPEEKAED
Put plainly: Radioligand binding assay at rat A1 AR (rat brain cortex) vs. [^3H]CCPA. The settings on record: rat (r); for Ki: rat brain cortex, n = 3; for inhibition at 1.5 µM: read-out: % inhibition of radioligand binding at indicated concentration, A1 vs. [^3H]CCPA, at 1,500 nM. How it is done: (§1) Membrane preparations and radioligand binding assays at rat A1 (rat brain cortex) and rat A2A ARs (rat brain striatum) were performed as previously described (Ozola et al., [2003]; Alnouri et al., [2015]). For assays at human A1, A2A, A2B, and A3 ARs, CHO cell membranes expressing one of the human AR subtypes were used as previously reported (Klotz et al., [1998]; Alnouri et al., [2015]; De Filippo et al., [2016]).
(§2) The synthesized tetrahydropyrazino[2,1-f ]purinediones 13–20 were evaluated in radioligand binding assays for their affinity to A1 ARs of rat brain cortical membrane and to A2A ARs of rat brain striatal membrane preparations. Selected compounds were further investigated for their affinity to human A1 and A2A ARs recombinantly expressed in Chinese hamster ovary (CHO) cells. All compounds were additionally investigated for their affinity to human A2B and A3 ARs recombinantly expressed in CHO cells to determine their AR subtype selectivity. […] It is well known that all xanthine derivatives lacking a ribose moiety, including tricyclic compounds, can only block ARs, but never act as AR agonists; therefore, additional functional studies were not required. […] Potent MAO-B inhibitors were additionally investigated for inhibition of human MAO-A to assess their selectivity. Results are presented in Tables 1–6, and data of standard ligands are included for comparison.

The target of experiment [2] is T2, rat A2A AR (Rattus norvegicus, UniProt P30543).
T2 construct: A2A ARs of rat brain striatal membrane preparations; from tissue; host or cells: rat brain striatum membranes
T2 sequence (P30543 whole entry): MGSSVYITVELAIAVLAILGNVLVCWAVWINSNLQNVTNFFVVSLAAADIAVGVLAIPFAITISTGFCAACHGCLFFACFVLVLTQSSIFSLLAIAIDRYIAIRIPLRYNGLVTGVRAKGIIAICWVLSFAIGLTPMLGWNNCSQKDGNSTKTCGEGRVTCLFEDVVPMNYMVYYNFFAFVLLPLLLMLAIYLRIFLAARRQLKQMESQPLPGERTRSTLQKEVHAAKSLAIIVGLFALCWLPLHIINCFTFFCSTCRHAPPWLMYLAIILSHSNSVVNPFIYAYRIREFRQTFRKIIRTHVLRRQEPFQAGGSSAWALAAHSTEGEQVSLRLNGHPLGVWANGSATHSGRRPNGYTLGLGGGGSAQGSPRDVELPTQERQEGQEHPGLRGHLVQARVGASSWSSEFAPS
The experiment can be described thus: Radioligand binding assay at rat A2A AR (rat brain striatum) vs. [^3H]MSX-2. The note with it: rat (r); for % inhibition of radioligand binding at indicated concentration, A2A vs. [^3H]MSX-2: at 1,000 nM; for Ki: rat brain striatum, n = 3, read-out: Ki ± SEM, A2A vs. [^3H]MSX-2. The method, then: as §1, §2

Experiment [3] has as its target T3, human A3 AR (Homo sapiens, UniProt P0DMS8).
T3 construct: expressed in transfected cells; host or cells: CHO cells
T3 sequence (P0DMS8 1-318): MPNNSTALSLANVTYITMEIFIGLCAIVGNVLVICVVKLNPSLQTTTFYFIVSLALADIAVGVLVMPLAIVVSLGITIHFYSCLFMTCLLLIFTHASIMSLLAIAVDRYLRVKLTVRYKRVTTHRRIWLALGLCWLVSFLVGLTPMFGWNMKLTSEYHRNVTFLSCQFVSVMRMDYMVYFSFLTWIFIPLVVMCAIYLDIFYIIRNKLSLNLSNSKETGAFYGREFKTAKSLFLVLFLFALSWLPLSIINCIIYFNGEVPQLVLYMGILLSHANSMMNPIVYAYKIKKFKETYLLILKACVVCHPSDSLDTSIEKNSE
The experiment can be described thus: Radioligand binding assay at human A3 AR vs. [^3H]PSB-11. The note with it: for Ki: CHO cell membranes, n = 2 (n = 3 where marked a), read-out: Ki ± SEM, A3 vs. [^3H]PSB-11; for inhibition at 10 µM: at 10,000 nM, read-out: % inhibition of radioligand binding at indicated concentration, A3 vs. [^3H]PSB-11. How it is done: as §1, §2

For experiment [4], the target named is T4, recombinant human MAO-B (Homo sapiens, UniProt P27338).
T4 construct: purchased Sigma-Aldrich M7441; host or cells: baculovirus-infected insect cells
T4 sequence (P27338 1-520): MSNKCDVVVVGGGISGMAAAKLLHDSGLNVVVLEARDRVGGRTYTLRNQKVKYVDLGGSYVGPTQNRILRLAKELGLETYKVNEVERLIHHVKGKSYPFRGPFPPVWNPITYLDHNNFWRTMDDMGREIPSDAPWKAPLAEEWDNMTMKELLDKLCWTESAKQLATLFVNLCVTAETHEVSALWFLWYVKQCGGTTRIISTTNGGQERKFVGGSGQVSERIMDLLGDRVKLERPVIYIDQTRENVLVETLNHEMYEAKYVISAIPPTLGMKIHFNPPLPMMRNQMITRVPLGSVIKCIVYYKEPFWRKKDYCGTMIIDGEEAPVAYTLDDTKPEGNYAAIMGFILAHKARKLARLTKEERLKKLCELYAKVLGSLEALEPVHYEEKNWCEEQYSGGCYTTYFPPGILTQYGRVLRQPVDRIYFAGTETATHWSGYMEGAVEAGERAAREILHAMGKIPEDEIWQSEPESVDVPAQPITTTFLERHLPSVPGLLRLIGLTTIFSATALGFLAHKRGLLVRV
Put plainly: Monoamine oxidase assay (Amplex Red), MAO-B. It counts as biochemical. The settings on record: for inhibition at 10 µM: at 10,000 nM (10 μM), read-out: % inhibition at indicated concentration, Human MAO-B; for IC50: n = 3, read-out: IC50 ± SEM, Human MAO-B. How it is done:
The determination of MAO-A and MAO-B inhibition was performed using commercially available recombinant human MAO-A and MAO-B enzymes expressed in baculovirus-infected insects sells (Sigma-Aldrich, M7316 and M7441) applying the commercially available Amplex® Red monoamine oxidase assay kit (Invitrogen A12214). The assays were performed as previously described. The determination of rat MAO-B inhibition was performed using mitochondrial-enriched fractions from male Sprague Dawley rat livers. […]

In experiment [5] the target is T5, human A2B AR (Homo sapiens, UniProt P29275).
T5 construct: expressed in transfected cells; host or cells: CHO cells
T5 sequence (P29275 1-332): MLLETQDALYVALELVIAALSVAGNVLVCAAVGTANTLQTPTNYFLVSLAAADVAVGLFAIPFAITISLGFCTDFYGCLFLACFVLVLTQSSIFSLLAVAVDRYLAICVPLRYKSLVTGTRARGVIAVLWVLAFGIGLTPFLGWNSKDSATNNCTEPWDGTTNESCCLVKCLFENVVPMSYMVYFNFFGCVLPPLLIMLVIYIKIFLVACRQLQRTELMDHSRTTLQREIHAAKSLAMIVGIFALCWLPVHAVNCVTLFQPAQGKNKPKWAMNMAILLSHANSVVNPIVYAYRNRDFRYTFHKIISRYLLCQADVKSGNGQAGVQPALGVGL
Put plainly: Radioligand binding assay at human A2B AR vs. [^3H]PSB-603. The settings on record: for Ki: CHO cell membranes, n = 2 (n = 3 where marked a), read-out: Ki ± SEM, A2B vs. [^3H]PSB-603; for inhibition at 1 µM: at 1,000 nM. How it is done:
as §1, §2

Setting [6] is: read-out: % inhibition of radioligand binding at indicated concentration, A2B vs. [^3H]PSB-603.

SMILES strings stand for the structures.

Broadly, the Ki is a measure of affinity in units of concentration, obtained from inhibition or displacement. For orientation: IC50 means the concentration needed to halve the response being measured. In the case of `Cn1c(=O)[nH]c(=O)c2c1nc1n2CCN(Cc2cccc(C(F)(F)F)c2)C1` [Compound 13b, 1-methyl-8-(3-(trifluoromethyl)benzyl)-6,7,8,9-tetrahydropyrazino[2,1-f]purine-2,4(1H,3H)-dione], the Ki in experiment [1] was above 1500 nM; in experiment [2], above 1000 nM; in experiment [3], above 10000 nM; in experiment [5], above 1000 nM. Besides, the inhibition at 1.5 µM in experiment [1] was -1%. For the same compound, the “% inhibition of radioligand binding at indicated concentration, A2A vs. [^3H]MSX-2” value (“% inhibition of radioligand binding” below) in experiment [2] is given as 5%. Also, the values for the inhibition at 10 µM in experiment [3] and in experiment [4] were 35% and 14%, respectively. For the same compound, the IC50 in experiment [4] is above 10000 nM. Besides, the inhibition at 1 µM in experiment [5] (setting [6]) was 2%.
Consider `Cn1c(=O)[nH]c(=O)c2c1nc1n2CCN(CCc2cccc(Cl)c2)C1` [Compound 13c, 8-(3-chlorophenethyl)-1-methyl-6,7,8,9-tetrahydropyrazino[2,1-f]purine-2,4(1H,3H)-dione], for which the Ki is above 1500 nM in experiment [1], above 1000 nM in experiment [2], above 10000 nM in experiment [3] and above 1000 nM in experiment [5]. The inhibition at 1.5 µM in experiment [1] was 3%. Besides, in experiment [2], the “% inhibition of radioligand binding” value came to 1%. Also, the results for the inhibition at 10 µM in experiment [3] and in experiment [4] were 49% and 54%, respectively. For the same compound, the IC50 in experiment [4] was around 10000 nM. For the same compound, the inhibition at 1 µM in experiment [5] (setting [6]) turned out to be 18%.
Turning to `Cn1c(=O)[nH]c(=O)c2c1nc1n2CCN(CCc2cccc(Br)c2)C1` [Compound 13d, 8-(3-bromophenethyl)-1-methyl-6,7,8,9-tetrahydropyrazino[2,1-f]purine-2,4(1H,3H)-dione], in experiment [1], the Ki is above 1500 nM and the inhibition at 1.5 µM is 1%. In experiment [2], the “% inhibition of radioligand binding” value is 15% and the Ki is above 1000 nM. Further, in experiment [3], the inhibitory constant (Ki) is around 10000 nM and the inhibition at 10 µM was found to be 45%. Besides, the inhibition constant Ki in experiment [5] is above 1000 nM. For the same compound, the inhibition at 1 µM in experiment [5] (setting [6]) amounted to 1%.
As to `Cn1c(=O)[nH]c(=O)c2c1nc1n2CCN(CCc2cccc(C(F)(F)F)c2)C1` [Compound 13e, 1-methyl-8-(3-(trifluoromethyl)phenethyl)-6,7,8,9-tetrahydropyrazino[2,1-f]purine-2,4(1H,3H)-dione], in experiment [1], the inhibition constant Ki was above 1500 nM and the inhibition at 1.5 µM was 9%. In experiment [2], the “% inhibition of radioligand binding” value stood at 4% and the inhibition constant (Ki) was above 1000 nM. In experiment [3], the Ki was above 10000 nM and the inhibition at 10 µM worked out at 39%. Moreover, in experiment [4], the inhibition at 10 µM was 47% and the IC50 was around 10000 nM. Also, the inhibition constant (Ki) in experiment [5] is above 300 nM. The inhibition at 0.3 µM in experiment [5] (at 300 nM, read-out: % inhibition of radioligand binding at indicated concentration, A2B vs. [^3H]PSB-603) was 8%.
Take `CCn1c(=O)c2c(nc3n2CCN(Cc2ccc(C(F)(F)F)cc2)C3)n(C)c1=O` [Compound 14f, 3-ethyl-1-methyl-8-(4-(trifluoromethyl)benzyl)-6,7,8,9-tetrahydropyrazino[2,1-f]purine-2,4(1H,3H)-dione]: in experiment [1], the Ki was above 1500 nM and the inhibition at 1.5 µM was determined as 9%. Besides, in experiment [2], the “% inhibition of radioligand binding” value is recorded as 7% and the inhibition constant Ki is above 1000 nM. Also, the Ki in experiment [3] came to 18600 nM. Moreover, in experiment [4], the inhibition at 10 µM stood at 32% and the IC50 was above 10000 nM. For the same compound, the Ki in experiment [5] is above 100 nM. Besides, the inhibition at 0.1 µM in experiment [5] (at 100 nM, read-out: % inhibition of radioligand binding at indicated concentration, A2B vs. [^3H]PSB-603) was 1%.
As for `CCn1c(=O)c2c(nc3n2CCN(Cc2ccc(Cl)cc2C(F)(F)F)C3)n(CC)c1=O` [Compound 15o, 8-(4-chloro-2-(trifluoromethyl)benzyl)-1,3-diethyl-6,7,8,9-tetrahydropyrazino[2,1-f]purine-2,4(1H,3H)-dione], the inhibitory constant (Ki) in experiment [1] was above 1500 nM; in experiment [2], above 1000 nM; in experiment [3], 1690 nM; in experiment [5], above 1000 nM. Also, the inhibition at 1.5 µM in experiment [1] was 41%. In addition, the “% inhibition of radioligand binding” value in experiment [2] was determined as 19%. For the same compound, in experiment [4], the inhibition at 10 µM was determined as 5%. Besides, in experiment [4], the half-maximal inhibitory concentration (IC50) was above 10000 nM. In experiment [5] (setting [6]), the inhibition at 1 µM is 16%.
As for `CCn1c(=O)c2c(nc3n2CCN(Cc2cc(C(F)(F)F)cc(C(F)(F)F)c2)C3)n(CC)c1=O` [Compound 15q, 8-(3,5-bis(trifluoromethyl)benzyl)-1,3-diethyl-6,7,8,9-tetrahydropyrazino[2,1-f]purine-2,4(1H,3H)-dione], in experiment [1], the Ki is above 1500 nM and the inhibition at 1.5 µM was 6%. Moreover, in experiment [2], the “% inhibition of radioligand binding” value came out at 13% and the Ki is above 1000 nM. Further, in experiment [3], the Ki is above 10000 nM and the inhibition at 10 µM came to 40%. In experiment [4], the inhibition at 10 µM was found to be 27% and the 50% inhibitory concentration (IC50) was above 10000 nM. In experiment [5], the Ki is above 1000 nM. In experiment [5] (setting [6]), the inhibition at 1 µM turned out to be 7%.
With `C#CCn1c(=O)c2c(nc3n2CCN(c2ccccc2F)C3)n(CC)c1=O` [Compound 20a, 1-ethyl-8-(2-fluorophenyl)-3-propargyl-6,7,8,9-tetrahydropyrazino[2,1-f]purine-2,4(1H,3H)-dione], the inhibition constant Ki in experiment [1] was 1140 nM; in experiment [2], 1380 nM; in experiment [3] it was 4270 nM; in experiment [5], above 1000 nM. The inhibition at 10 µM in experiment [4] was 29%. In addition, in experiment [4], the half-maximal inhibitory concentration (IC50) is above 10000 nM. Besides, in experiment [5] (setting [6]), the inhibition at 1 µM amounted to 8%.
